Patent US20250101011A1, “PEPTIDYL NITRILE COMPOUND AND USE THEREOF” (SHANGHAI YIDIAN PHARMACEUTICAL TECHNOLOGY DEVELOPMENT CO., …, priority 2022, published 2025)

target: DPP1 (Homo sapiens (Human), UniProt P53634); experiment: DPP1 activity inhibition test on U937 cells; assay type: cell-based; details: U-937, 5 nM compound, substrate h-Gly-phe-AFC
Description: After incubation at 37° C. for 1 h, add h-Gly-phe-AFC (10 μL) to each well and start reaction.

Sequence of DPP1 (P53634 25-463): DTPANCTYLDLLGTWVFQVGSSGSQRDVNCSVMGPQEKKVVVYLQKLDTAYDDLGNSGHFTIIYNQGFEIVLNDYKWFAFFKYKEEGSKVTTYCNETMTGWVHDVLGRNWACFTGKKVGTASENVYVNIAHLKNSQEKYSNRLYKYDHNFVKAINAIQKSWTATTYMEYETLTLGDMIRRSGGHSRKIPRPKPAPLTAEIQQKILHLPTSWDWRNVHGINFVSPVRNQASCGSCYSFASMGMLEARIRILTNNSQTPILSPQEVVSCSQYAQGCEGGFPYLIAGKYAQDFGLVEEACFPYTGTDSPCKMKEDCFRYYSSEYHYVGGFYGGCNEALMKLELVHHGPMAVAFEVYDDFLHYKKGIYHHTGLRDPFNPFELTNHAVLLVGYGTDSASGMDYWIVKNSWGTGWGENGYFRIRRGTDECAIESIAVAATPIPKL

inhibition at 0.005 µM [%]	SMILES
< 30	N#C[C@H](Cc1ccc(-c2ccc3oc(=O)n(CC4COC4)c3c2)cc1F)NC(=O)[C@@H]1CNCCCO1 [Compound D94]
< 30	N#C[C@H](Cc1ccc(-c2cnc3c(c2)CCC3=O)cc1F)NC(=O)[C@@H]1CNCCCO1 [Compound D113]
< 30	Cn1c(=O)oc2ccc(-c3ccc(C[C@@H](C#N)NC(=O)[C@@H]4COCC[C@@H]4N)cc3)cc21 [Compound D52]
< 30	N#C[C@H](Cc1ccc(-c2ccc3c(n2)CCC3=O)cc1F)NC(=O)[C@@H]1CNCCCO1 [Compound D111]
< 30	N#C[C@H](Cc1ccc(-c2ccc3oc(=O)n(C4CCN(C5COC5)CC4)c3c2)cc1F)NC(=O)[C@@H]1CNCCCO1 [Compound D82]
< 30	Cn1cnc(-n2c(=O)oc3ccc(-c4ccc(C[C@@H](C#N)NC(=O)[C@@H]5CNCCCO5)c(F)c4)cc32)n1 [Compound D64]
< 30	N#C[C@H](Cc1ccc(-c2ccc3c(c2)C(=O)CC3)cc1)NC(=O)[C@@H]1CNCCCO1 [Compound D43]
< 30	Cn1c(=O)oc2ncc(-c3ccc(C[C@@H](C#N)NC(=O)[C@@H]4CNCCCO4)c(F)c3)nc21 [Compound D66]
30 to 75	CC1(C)OC(=O)c2ccc(-c3ccc(C[C@@H](C#N)NC(=O)[C@@H]4CNCCCO4)cc3)cc21 [Compound D42]
< 30	N#C[C@H](Cc1ccc(-c2ccc3c(c2)C2(CCN(C4COC4)C2)OC3)cc1F)NC(=O)[C@@H]1CNCCCO1 (stereo partly shown) [Compound D87]
< 30	N#C[C@H](Cc1ccc(-c2ccc3c(c2)C2(CS(=O)(=O)C2)OC3=O)cc1F)NC(=O)[C@@H]1CNCCCO1 [Compound D72]
< 30	CN1CCC2(C1)OC(=O)c1ccc(-c3ccc(C[C@@H](C#N)NC(=O)[C@@H]4CNCCCO4)c(F)c3)cc12 (stereo partly shown) [Compound D88]
< 30	N#C[C@H](Cc1ccc(-c2ccc3c(c2)C2(CN(C4COC4)C2)OC3=O)cc1F)NC(=O)[C@@H]1CNCCCO1 [Compound D56]
< 30	N#C[C@H](Cc1ccc(-c2ccc3oc(=O)n(C4CC(=O)C4)c3c2)cc1F)NC(=O)[C@@H]1CNCCCO1 [Compound D68]
< 30	CN1CC2(C1)OC(=O)c1ccc(-c3ccc(C[C@@H](C#N)NC(=O)[C@@H]4CNCCCO4)c(F)c3)cc12 [Compound D102]
< 30	N#C[C@H](Cc1ccc(-c2ccc3oc(=O)n(C4CC(O)C4)c3c2)cc1F)NC(=O)[C@@H]1CNCCCO1 (stereo partly shown) [Compound D69]
30 to 75	CN1CC2(C1)OCc1ccc(-c3ccc(C[C@@H](C#N)NC(=O)[C@@H]4CNCCCO4)c(F)c3)cc12 [Compound D103]

Second part, the molecule before the results:

SMILES	inhibition at 0.005 µM [%]
CN1CCC2(C1)OCc1ccc(-c3ccc(C[C@@H](C#N)NC(=O)[C@@H]4CNCCCO4)cc3)cc12 (stereo partly shown) [Compound D36]	< 30
N#C[C@H](Cc1ccc(-c2ccc3nncn3c2)cc1)NC(=O)[C@@H]1CNCCCO1 [Compound D05]	< 30
C[C@@H](O)Cn1c(=O)oc2ccc(-c3ccc(C[C@@H](C#N)NC(=O)[C@@H]4CNCCCO4)cc3)cc21 [Compound D34]	< 30
N#C[C@H](Cc1ccc(-c2ccc3c(c2)OC(F)(F)O3)cc1)NC(=O)[C@@H]1CNCCCO1 [Compound D07]	< 30
N#C[C@H](Cc1ccc(-c2ccc3oc(=O)n(C4COC4)c3c2)cc1)NC(=O)[C@@H]1CNCCCO1 [Compound D03]	< 30
Cn1c(=O)oc2cc(-c3ccc(C[C@@H](C#N)NC(=O)[C@@H]4CNCCCO4)cc3)ccc21 [Compound D17]	< 30
N#C[C@H](Cc1ccc(-c2ccc3c(c2)CC(=O)C3)cc1)NC(=O)[C@@H]1CNCCCO1 [Compound D08]	< 30
N#C[C@H](Cc1ccc(-c2ccc3nnnn3c2)cc1)NC(=O)[C@@H]1CNCCCO1 [Compound D06]	< 30
N#C[C@H](Cc1ccc(-c2ccc3c(c2)C2(COC2)OC3)cc1)NC(=O)[C@@H]1CNCCCO1 [Compound D22]	30 to 75
C[C@H](O)Cn1c(=O)oc2ccc(-c3ccc(C[C@@H](C#N)NC(=O)[C@@H]4CNCCCO4)cc3)cc21 [Compound D32]	< 30
CN1CCC2(CC1)OCc1ccc(-c3ccc(C[C@@H](C#N)NC(=O)[C@@H]4CNCCCO4)cc3)nc12 [Compound D31]	< 30
CO[C@H](C)Cn1c(=O)oc2ccc(-c3ccc(C[C@@H](C#N)NC(=O)[C@@H]4CNCCCO4)cc3)cc21 [Compound D35]	< 30
CN1CCC2(C1)OC(=O)c1ccc(-c3ccc(C[C@@H](C#N)NC(=O)[C@@H]4CNCCCO4)cc3)cc12 (stereo partly shown) [Compound D37]	< 30
CN1CCC2(CC1)COc1ccc(-c3ccc(C[C@@H](C#N)NC(=O)[C@@H]4CNCCCO4)c(F)c3)cc12 [Compound D108]	< 30
CN1CCC2(CC1)OCc1ccc(-c3ccc(C[C@@H](C#N)NC(=O)[C@@H]4CNCCCO4)c(F)c3)cc12 [Compound D105]	< 30
CN1Cc2sc(-c3ccc(C[C@@H](C#N)NC(=O)[C@@H]4CNCCCO4)cc3)cc2C1=O [Compound D14]	< 30
CN1CCC2(C=Cc3cc(-c4ccc(C[C@@H](C#N)NC(=O)[C@@H]5CNCCCO5)c(F)c4)ccc32)CC1 [Compound D91]	30 to 75

same assay, conditions: U-937, 50 nM compound, substrate h-Gly-phe-AFC

inhibition at 0.05 µM [%]	SMILES
< 30	N#C[C@H](Cc1ccc(-c2ccc3oc(=O)n(CC4COC4)c3c2)cc1F)NC(=O)[C@@H]1CNCCCO1 [Compound D94]
< 30	N#C[C@H](Cc1ccc(-c2cnc3c(c2)CCC3=O)cc1F)NC(=O)[C@@H]1CNCCCO1 [Compound D113]
30 to 75	Cn1c(=O)oc2ccc(-c3ccc(C[C@@H](C#N)NC(=O)[C@@H]4COCC[C@@H]4N)cc3)cc21 [Compound D52]
75 to 100	N#C[C@H](Cc1ccc(-c2ccc3c(n2)CCC3=O)cc1F)NC(=O)[C@@H]1CNCCCO1 [Compound D111]
< 30	N#C[C@H](Cc1ccc(-c2ccc3oc(=O)n(C4CCN(C5COC5)CC4)c3c2)cc1F)NC(=O)[C@@H]1CNCCCO1 [Compound D82]
< 30	Cn1cnc(-n2c(=O)oc3ccc(-c4ccc(C[C@@H](C#N)NC(=O)[C@@H]5CNCCCO5)c(F)c4)cc32)n1 [Compound D64]
30 to 75	N#C[C@H](Cc1ccc(-c2ccc3c(c2)C(=O)CC3)cc1)NC(=O)[C@@H]1CNCCCO1 [Compound D43]
< 30	Cn1c(=O)oc2ncc(-c3ccc(C[C@@H](C#N)NC(=O)[C@@H]4CNCCCO4)c(F)c3)nc21 [Compound D66]
75 to 100	CC1(C)OC(=O)c2ccc(-c3ccc(C[C@@H](C#N)NC(=O)[C@@H]4CNCCCO4)cc3)cc21 [Compound D42]
75 to 100	N#C[C@H](Cc1ccc(-c2ccc3c(c2)C2(CCN(C4COC4)C2)OC3)cc1F)NC(=O)[C@@H]1CNCCCO1 (stereo partly shown) [Compound D87]
< 30	N#C[C@H](Cc1ccc(-c2ccc3c(c2)C2(CS(=O)(=O)C2)OC3=O)cc1F)NC(=O)[C@@H]1CNCCCO1 [Compound D72]
75 to 100	CN1CCC2(C1)OC(=O)c1ccc(-c3ccc(C[C@@H](C#N)NC(=O)[C@@H]4CNCCCO4)c(F)c3)cc12 (stereo partly shown) [Compound D88]
30 to 75	N#C[C@H](Cc1ccc(-c2ccc3c(c2)C2(CN(C4COC4)C2)OC3=O)cc1F)NC(=O)[C@@H]1CNCCCO1 [Compound D56]
< 30	N#C[C@H](Cc1ccc(-c2ccc3oc(=O)n(C4CC(=O)C4)c3c2)cc1F)NC(=O)[C@@H]1CNCCCO1 [Compound D68]
75 to 100	CN1CC2(C1)OC(=O)c1ccc(-c3ccc(C[C@@H](C#N)NC(=O)[C@@H]4CNCCCO4)c(F)c3)cc12 [Compound D102]
< 30	N#C[C@H](Cc1ccc(-c2ccc3oc(=O)n(C4CC(O)C4)c3c2)cc1F)NC(=O)[C@@H]1CNCCCO1 (stereo partly shown) [Compound D69]
75 to 100	CN1CC2(C1)OCc1ccc(-c3ccc(C[C@@H](C#N)NC(=O)[C@@H]4CNCCCO4)c(F)c3)cc12 [Compound D103]

The next lines start with the molecule.

SMILES	inhibition at 0.05 µM [%]
CN1CCC2(C1)OCc1ccc(-c3ccc(C[C@@H](C#N)NC(=O)[C@@H]4CNCCCO4)cc3)cc12 (stereo partly shown) [Compound D36]	30 to 75
N#C[C@H](Cc1ccc(-c2ccc3nncn3c2)cc1)NC(=O)[C@@H]1CNCCCO1 [Compound D05]	< 30
C[C@@H](O)Cn1c(=O)oc2ccc(-c3ccc(C[C@@H](C#N)NC(=O)[C@@H]4CNCCCO4)cc3)cc21 [Compound D34]	30 to 75
N#C[C@H](Cc1ccc(-c2ccc3c(c2)OC(F)(F)O3)cc1)NC(=O)[C@@H]1CNCCCO1 [Compound D07]	30 to 75
N#C[C@H](Cc1ccc(-c2ccc3oc(=O)n(C4COC4)c3c2)cc1)NC(=O)[C@@H]1CNCCCO1 [Compound D03]	30 to 75
Cn1c(=O)oc2cc(-c3ccc(C[C@@H](C#N)NC(=O)[C@@H]4CNCCCO4)cc3)ccc21 [Compound D17]	30 to 75
N#C[C@H](Cc1ccc(-c2ccc3c(c2)CC(=O)C3)cc1)NC(=O)[C@@H]1CNCCCO1 [Compound D08]	30 to 75
N#C[C@H](Cc1ccc(-c2ccc3nnnn3c2)cc1)NC(=O)[C@@H]1CNCCCO1 [Compound D06]	< 30
N#C[C@H](Cc1ccc(-c2ccc3c(c2)C2(COC2)OC3)cc1)NC(=O)[C@@H]1CNCCCO1 [Compound D22]	75 to 100
C[C@H](O)Cn1c(=O)oc2ccc(-c3ccc(C[C@@H](C#N)NC(=O)[C@@H]4CNCCCO4)cc3)cc21 [Compound D32]	30 to 75
CN1CCC2(CC1)OCc1ccc(-c3ccc(C[C@@H](C#N)NC(=O)[C@@H]4CNCCCO4)cc3)nc12 [Compound D31]	30 to 75
CO[C@H](C)Cn1c(=O)oc2ccc(-c3ccc(C[C@@H](C#N)NC(=O)[C@@H]4CNCCCO4)cc3)cc21 [Compound D35]	30 to 75
CN1CCC2(C1)OC(=O)c1ccc(-c3ccc(C[C@@H](C#N)NC(=O)[C@@H]4CNCCCO4)cc3)cc12 (stereo partly shown) [Compound D37]	30 to 75
CN1CCC2(CC1)COc1ccc(-c3ccc(C[C@@H](C#N)NC(=O)[C@@H]4CNCCCO4)c(F)c3)cc12 [Compound D108]	75 to 100
CN1CCC2(CC1)OCc1ccc(-c3ccc(C[C@@H](C#N)NC(=O)[C@@H]4CNCCCO4)c(F)c3)cc12 [Compound D105]	< 30
CN1Cc2sc(-c3ccc(C[C@@H](C#N)NC(=O)[C@@H]4CNCCCO4)cc3)cc2C1=O [Compound D14]	30 to 75
CN1CCC2(C=Cc3cc(-c4ccc(C[C@@H](C#N)NC(=O)[C@@H]5CNCCCO5)c(F)c4)ccc32)CC1 [Compound D91]	75 to 100

same assay, conditions: intracellular enzyme activity, substrate h-Gly-phe-AFC

IC50 [nM]	SMILES
32.9	N#C[C@H](Cc1ccc(-c2ccc3c(n2)CCC3=O)cc1F)NC(=O)[C@@H]1CNCCCO1 [Compound D111]
4.3	C[C@@H]1CNC[C@@H](C(=O)N[C@H](C#N)Cc2ccc(-c3ccc4oc(=O)n(C)c4c3)cc2F)OC1 [Compound D110]
> 1000	Cn1c(=O)oc2ccc(-c3ccc(C[C@@H](C#N)NC(=O)[C@@H]4CNCC(F)(F)CO4)cc3)cc21 [Compound D51]
109	CN1CCC1Cn1c(=O)oc2ccc(-c3ccc(C[C@@H](C#N)NC(=O)[C@@H]4CNCCCO4)c(F)c3)cc21 (stereo partly shown) [Compound D97]
15	CC1(C)OC(=O)c2ccc(-c3ccc(C[C@@H](C#N)NC(=O)[C@@H]4CNCCCO4)cc3)cc21 [Compound D42]
12.8	N#C[C@H](Cc1ccc(-c2ccc3c(c2)C2(CCN(C4COC4)C2)OC3)cc1F)NC(=O)[C@@H]1CNCCCO1 (stereo partly shown) [Compound D87]
17	N#C[C@H](Cc1ccc(-c2ccc3c(c2)C2CC2C3=O)cc1F)NC(=O)[C@@H]1CNCCCO1 (stereo partly shown) [Compound D122]
16	Cn1c(=O)oc2ccc(-c3ccc(C[C@@H](C#N)NC(=O)[C@@H]4CNCCCO4)s3)cc21 [Compound D53]
13.1	CN1CC2(C1)OC(=O)c1ccc(-c3ccc(C[C@@H](C#N)NC(=O)[C@@H]4CNCCCO4)c(F)c3)cc12 [Compound D102]
12.2	CN1CC2(C1)OCc1ccc(-c3ccc(C[C@@H](C#N)NC(=O)[C@@H]4CNCCCO4)c(F)c3)cc12 [Compound D103]

SMILES	IC50 [nM]
CN1CCC2(C=Cc3cc(-c4ccc(C[C@@H](C#N)NC(=O)[C@@H]5CNCCCO5)c(F)c4)ccc32)CC1 [Compound D91]	18
